Results reported in US20250120970A1, “PHARMACEUTICAL COMPOSITION INCLUDING PHTHALAZINONE DERIVATIVE FOR CO-ADMINISTRATION WITH ANTICANCER DRUG” (priority 2022, published 2025).
Counter-ions that a name gives are not always drawn.

Columns and labels:
SNU-638 [1] = assay: MTT assay, irinotecan with or without hydrochloride compound of Formula 1; assay type: cell-based; conditions: Homo sapiens, 120 h, 5 days, irinotecan alone or with 1 μM hydrochloride compound of Formula 1
SNU-668 [2] = assay: as above; assay type: cell-based; conditions: Homo sapiens, SNU668, 120 h, 5 days, irinotecan alone or with 1 μM hydrochloride compound of Formula 1
[3] = system: five human-derived gastric cancer cell lines (AGS, SNU-668, SNU-216, SNU-484, and SNU-638); assay: MTT assay, irinotecan experiment, summary over the five cell lines; conditions: 5 days, irinotecan with or without 1 μM hydrochloride compound of Formula 1
AGS [4] = assay: MTT assay, irinotecan with or without hydrochloride compound of Formula 1; assay type: cell-based; conditions: Homo sapiens, 120 h, 5 days, irinotecan alone or with 1 μM hydrochloride compound of Formula 1
SNU-484 [5] = assay: as above; assay type: cell-based; conditions: Homo sapiens, 120 h, 5 days, irinotecan alone or with 1 μM hydrochloride compound of Formula 1
SNU-216 = assay: as above; assay type: cell-based; conditions: Homo sapiens, 120 h, 5 days, irinotecan alone or with 1 μM hydrochloride compound of Formula 1
[6] = system: five human-derived gastric cancer cell lines (AGS, SNU-668, SNU-216, SNU-484, and SNU-638); assay: MTT assay, oxaliplatin experiment, summary over the cell lines; assay type: cell-based; conditions: 5 days, oxaliplatin with or without 1 μM hydrochloride compound of Formula 1
Text: (§1) Oxaliplatin (M.W. 397.29) was obtained from Sigma Aldrich.

SNU-668 [7] = assay: MTT assay, oxaliplatin with or without hydrochloride compound of Formula 1; assay type: cell-based, human; conditions: 5 days, oxaliplatin alone or with 1 μM hydrochloride compound of Formula 1
Text: as §1

SNU-484 [8] = assay: as above; assay type: cell-based, human; conditions: 5 days, oxaliplatin alone or with 1 μM hydrochloride compound of Formula 1
Text: as §1

SNU-638 [9] = assay: as above; assay type: cell-based, human; conditions: 5 days, oxaliplatin alone or with 1 μM hydrochloride compound of Formula 1
Text: as §1

AGS [10] = assay: as above; assay type: cell-based, human; conditions: 5 days, oxaliplatin alone or with 1 μM hydrochloride compound of Formula 1
Text: as §1

[11] = system: MKN45 human gastric cancer xenograft; assay: subcutaneous MKN45 human gastric cancer xenograft model, tumor volume; conditions: for Tumor volume (Mean ± SEM): Formula 1 HCl 2 mg/kg p.o. QD, irinotecan 5 mg/kg i.v. QW

CCc1c2c(nc3ccc(OC(=O)N4CCC(N5CCCCC5)CC4)cc13)-c1cc3c(c(=O)n1C2)COC(=O)[C@]3(O)CC [Comparative Example 1, Irinotecan hydrochloride]
IC50 (SNU-638 [1]): 0.657 µM
IC50 (SNU-668 [2]): 4.3 µM
cell death (cell viability, FIG. 1) [3]: exhibited an effect of cell death
IC50 (AGS [4]): 0.367 µM
IC50 (SNU-484 [5]): 0.789 µM
IC50 (SNU-216): 2.01 µM

O=C1[O][Pt-2]2([NH2+]C3CCCC[C@H]3[NH2+]2)[O]C1=O (stereo partly drawn) [Comparative Example 2, Oxaliplatin]
cell death (cell viability, FIG. 2) [6]: exhibited an effect of cell death
IC50 (SNU-668 [7]): 11.2 µM
IC50 (SNU-484 [8]): 10.4 µM
IC50 (SNU-638 [9]): 30.3 µM
IC50 (AGS [10]): 2.38 µM

O=C(c1cc(Cc2n[nH]c(=O)c3ccccc23)ccc1F)N1CC(CNC2CC2)C1 [Comparative Example 4, 4-[3-(3-[(cyclopropylamino)methyl]azetidine-1-carbonyl)-4-fluorobenzyl]phthalazine-1 (2H)-on]
Tumor volume (Mean ± SEM) ([11]; 0 day (grouping date), MKN45 xenograft mice): 156.60 mm^3
Tumor volume (Mean ± SEM) ([11]; 3rd day, MKN45 xenograft mice): 190.75 mm^3
Tumor volume (Mean ± SEM) ([11]; 7th day, MKN45 xenograft mice): 272.69 mm^3
Tumor volume (Mean ± SEM) ([11]; 10th day, MKN45 xenograft mice): 359.75 mm^3
Tumor volume (Mean ± SEM) ([11]; 14th day, MKN45 xenograft mice): 461.91 mm^3
Tumor volume (Mean ± SEM) ([11]; 17th day, MKN45 xenograft mice): 588.26 mm^3
Tumor growth inhibition (TGI) ([11]; 21st day, Formula 1 HCl 2 mg/kg QD, irinotecan 5 mg/kg QW): 19.69%
Tumor size on 21st day (Mean ± SEM) ([11]; 21st day, MKN45 xenograft mice, Formula 1 HCl 2 mg/kg QD, irinotecan 5 mg/kg QW): 727.36 ± 69.46 mm^3
Tumor volume (Mean ± SEM) ([11]; 21st day, MKN45 xenograft mice): 727.36 mm^3
T/C ([11]; 21st day, treatment vs vehicle control tumor volume): 80.31%
